Test systems include HS 578T breast; SK-OV-3 ovarian; KM12 colon; LOX IMVI melanoma; HOP-62 NSCLC; UACC-62 melanoma; SN12C renal; SK-MEL-5 melanoma; U251 CNS; DU-145 prostate; BT-549 breast; MDA-MB-231 breast; UACC-257 melanoma; MDA-MB-435; HT29 colon.
Common to all, as to test: NCI-60 cell line screen, 48 h

The values that follow come from PubChem BioAssay (NCI).

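Five compound concentrations were applied to cells in 96-well plates for 48 hours; endpoints were derived by simple linear interpolation of the resulting dose-response curve. At the TGI there is no net growth.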 Peptide text beside a SMILES is read from it. * marks the point of attachment. Boc = CC(C)(C)OC(=O)*; OBn = c1ccc(CO*)cc1

For the compound `CNn1c(C)n[nH]c1=O`, the TGI with HS 578T breast, in the experiment on SK-OV-3 ovarian, in the experiment with KM12 colon, in the experiment with LOX IMVI melanoma, in the experiment with HOP-62 NSCLC and with UACC-62 melanoma was greater than 100 µM each time. For the same compound, the TGI with SN12C renal, in the experiment on SK-MEL-5 melanoma, in the experiment with U251 CNS, with DU-145 prostate, in the experiment with BT-549 breast and with MDA-MB-231 breast was greater than 100 µM in each case. In addition, the TGI in the experiment with UACC-257 melanoma and in the experiment on MDA-MB-435 was greater than 100 µM each time.
With `CC(NC(=O)CNC(=O)OC(C)(C)C)C(=O)NC(Cc1ccccc1)C(=O)OCc1ccccc1` (stereo not drawn) (Boc-Gly-Ala-Phe-OBn; configuration not given here), the TGI in the experiment on HS 578T breast, in the experiment with SK-OV-3 ovarian, in the experiment with KM12 colon, with LOX IMVI melanoma, in the experiment on HT29 colon and with UACC-62 melanoma was greater than 100 µM throughout. Also, the TGI in the experiment on SN12C renal, with SK-MEL-5 melanoma, with U251 CNS, in the experiment on DU-145 prostate, in the experiment with BT-549 breast and in the experiment on MDA-MB-231 breast was greater than 100 µM in each case. Further, the TGI with UACC-257 melanoma and in the experiment with MDA-MB-435 was greater than 100 µM in each case.
For the compound `O=c1oc2ccccc2c(O)c1C(c1ccc(/C=C/c2ccccc2)cc1)c1c(O)c2ccccc2oc1=O`, the TGI with HS 578T breast is 75.4 µM; in the experiment with KM12 colon, 64.4 µM; with LOX IMVI melanoma it was 73.3 µM; in the experiment with HOP-62 NSCLC, 89.3 µM; in the experiment on HT29 colon, 37.2 µM; with UACC-62 melanoma, greater than 100 µM. In addition, the TGI in the experiment on SN12C renal is 53.9 µM; in the experiment with SK-MEL-5 melanoma, 74.4 µM; in the experiment with U251 CNS, 43.9 µM; with DU-145 prostate, greater than 100 µM; in the experiment with BT-549 breast it was 56.2 µM; in the experiment with MDA-MB-231 breast it was 67.9 µM. Further, the results for the TGI with UACC-257 melanoma and with MDA-MB-435 were greater than 100 µM and 80 µM, respectively.
On to `CCOC(=O)C1C(c2ccc(OC)cc2)c2c([nH][nH]c2=O)CC1(O)OCC` (configuration not stated), for which the TGI in the experiment on HS 578T breast, in the experiment on KM12 colon, in the experiment on LOX IMVI melanoma, in the experiment with HOP-62 NSCLC, in the experiment with HT29 colon and in the experiment with UACC-62 melanoma was greater than 100 µM each time. In addition, the TGI in the experiment on SN12C renal, in the experiment with SK-MEL-5 melanoma, in the experiment on U251 CNS, with DU-145 prostate, in the experiment with BT-549 breast and in the experiment on MDA-MB-231 breast was greater than 100 µM in each case. Further, the TGI in the experiment with UACC-257 melanoma and in the experiment on MDA-MB-435 was greater than 100 µM each time.
Consider `N#Cc1c(Cl)c2ccccc2n2c1nc1ccccc12`, for which the TGI with HS 578T breast was 63.1 µM; in the experiment on SK-OV-3 ovarian, greater than 100 µM; with KM12 colon, greater than 100 µM; with LOX IMVI melanoma it was 34.6 µM; in the experiment on HOP-62 NSCLC, greater than 100 µM; with HT29 colon, 35.7 µM. For the same compound, the TGI with UACC-62 melanoma is greater than 100 µM; in the experiment with SN12C renal it was 67 µM; with U251 CNS, greater than 100 µM; with DU-145 prostate, 80.4 µM; in the experiment with BT-549 breast, greater than 100 µM; in the experiment with MDA-MB-231 breast, 74 µM. In addition, the TGI with UACC-257 melanoma and in the experiment with MDA-MB-435 was greater than 100 µM each time.
For `CC(=O)OCC1OC(N2C(C)=C(C(C)=O)C(c3ccco3)C(C#N)=C2S)C(OC(C)=O)C(OC(C)=O)C1OC(C)=O` (configuration not stated), the TGI in the experiment on HS 578T breast, with KM12 colon, in the experiment with LOX IMVI melanoma, in the experiment on HOP-62 NSCLC, in the experiment on HT29 colon and in the experiment on UACC-62 melanoma was greater than 100 µM each time. Also, the TGI in the experiment with SN12C renal, in the experiment on SK-MEL-5 melanoma, with U251 CNS, in the experiment on DU-145 prostate, in the experiment with BT-549 breast and with MDA-MB-231 breast was greater than 100 µM throughout. Besides, the TGI with UACC-257 melanoma and in the experiment with MDA-MB-435 was greater than 100 µM each time.
With `CC(=O)N(CCc1ccccc1)C(C#N)c1ccc(OCCCCCCCCCCOc2ccc(C(C#N)N(CCc3ccccc3)C(C)=O)cc2)cc1` (configuration not stated), the TGI with HS 578T breast was 56.1 µM; with SK-OV-3 ovarian, greater than 100 µM; in the experiment on KM12 colon it was greater than 100 µM; with LOX IMVI melanoma it was greater than 100 µM; with HT29 colon, greater than 100 µM; in the experiment on UACC-62 melanoma it was greater than 100 µM. In addition, the TGI in the experiment with SN12C renal was greater than 100 µM; with SK-MEL-5 melanoma it was greater than 100 µM; in the experiment with U251 CNS, 64.1 µM; in the experiment with DU-145 prostate, greater than 100 µM; in the experiment with BT-549 breast, 98.6 µM; in the experiment on MDA-MB-231 breast it was 48.5 µM. The TGI in the experiment with UACC-257 melanoma and in the experiment on MDA-MB-435 was greater than 100 µM throughout.
With `CN(/N=C/c1ccccn1)C1=NCCCCN1`, the TGI in the experiment on HS 578T breast, in the experiment on SK-OV-3 ovarian, in the experiment with KM12 colon, in the experiment with LOX IMVI melanoma, in the experiment on HOP-62 NSCLC and in the experiment on HT29 colon was greater than 100 µM in each case. Further, the TGI with UACC-62 melanoma, in the experiment with SK-MEL-5 melanoma, with U251 CNS, with BT-549 breast, with MDA-MB-231 breast and in the experiment with UACC-257 melanoma was greater than 100 µM in each case. Moreover, the TGI in the experiment with MDA-MB-435 is greater than 100 µM.
For `COc1ccc(C2=C(N)c3c(OC)cccc3C2=O)cc1`, the TGI in the experiment on HS 578T breast, with SK-OV-3 ovarian, in the experiment with KM12 colon, in the experiment on LOX IMVI melanoma, in the experiment with HOP-62 NSCLC and in the experiment with HT29 colon was greater than 100 µM in each case. The TGI with UACC-62 melanoma, with SN12C renal, with U251 CNS, in the experiment on DU-145 prostate, in the experiment with BT-549 breast and with MDA-MB-231 breast was greater than 100 µM in each case. In addition, the TGI in the experiment with MDA-MB-435 is greater than 100 µM.
Take `COc1cc(C2c3cc4c(cc3OC(Nc3ccccc3)C2C)OCO4)cc(OC)c1OC` (configuration not stated): the TGI in the experiment with HS 578T breast is greater than 78.5 µM; in the experiment on SK-OV-3 ovarian, greater than 100 µM; with KM12 colon, greater than 100 µM; with LOX IMVI melanoma, greater than 100 µM; in the experiment with HOP-62 NSCLC it was 9.89 µM; with HT29 colon, greater than 100 µM. The TGI is greater than 100 µM in the experiment with UACC-62 melanoma; greater than 100 µM in the experiment on SN12C renal; 21.3 µM in the experiment with U251 CNS; greater than 100 µM in the experiment on DU-145 prostate; greater than 90.9 µM in the experiment with BT-549 breast; greater than 52.4 µM in the experiment on MDA-MB-231 breast. For the same compound, the TGI is greater than 86.2 µM in the experiment on UACC-257 melanoma and 0.527 µM in the experiment on MDA-MB-435.
Turning to `NC1=NN(c2ccccc2)C2(O)c3ccncc3C3=NN(c4ccccc4)C(=O)C132` (configuration not stated), the TGI in the experiment on HS 578T breast, in the experiment with SK-OV-3 ovarian, in the experiment with KM12 colon, with LOX IMVI melanoma, in the experiment on HT29 colon and with UACC-62 melanoma was greater than 100 µM throughout. Besides, the TGI in the experiment with SN12C renal, in the experiment on SK-MEL-5 melanoma, with U251 CNS, in the experiment on DU-145 prostate, in the experiment on BT-549 breast and in the experiment with MDA-MB-231 breast was greater than 100 µM in each case. Further, the TGI with UACC-257 melanoma and with MDA-MB-435 was greater than 100 µM each time.
As for `O=c1oc2ccccc2nc1/C=C(\O)c1ccc([N+](=O)[O-])cc1`, the TGI in the experiment with HS 578T breast is 95.1 µM; in the experiment on SK-OV-3 ovarian, greater than 100 µM; with KM12 colon, greater than 100 µM; in the experiment on HOP-62 NSCLC, greater than 100 µM; in the experiment with HT29 colon it was greater than 100 µM; with UACC-62 melanoma, greater than 100 µM. Moreover, the TGI in the experiment on SN12C renal, in the experiment with SK-MEL-5 melanoma, in the experiment with U251 CNS, in the experiment with DU-145 prostate, in the experiment on BT-549 breast and with MDA-MB-231 breast was greater than 100 µM in each case. The TGI in the experiment with UACC-257 melanoma and with MDA-MB-435 was greater than 100 µM in each case.
With `COC1=C(N2CC2)C(=O)c2nc3n(c2C1=O)CCC3`, the TGI in the experiment on HS 578T breast is 31.3 µM; in the experiment with SK-OV-3 ovarian, 3.04 µM; with KM12 colon, 3.11 µM; in the experiment on LOX IMVI melanoma, 2.15 µM; with HOP-62 NSCLC it was 2.34 µM; with HT29 colon, 1.57 µM. Besides, the TGI turned out to be 3.12 µM in the experiment with UACC-62 melanoma; 2.95 µM in the experiment with SN12C renal; 2.56 µM in the experiment on SK-MEL-5 melanoma; 2.86 µM in the experiment on U251 CNS; 1.36 µM with DU-145 prostate; 2.39 µM in the experiment with BT-549 breast. For the same compound, the TGI is 6.28 µM with MDA-MB-231 breast and 3.32 µM with MDA-MB-435.
Take `Cn1c(NS(=O)(=O)c2ccccc2)nc2ccccc21`: the TGI with HS 578T breast, with SK-OV-3 ovarian, in the experiment with KM12 colon, with HT29 colon, in the experiment on UACC-62 melanoma and in the experiment on SN12C renal was greater than 100 µM in each case. Also, the TGI in the experiment on SK-MEL-5 melanoma, with U251 CNS, with DU-145 prostate, with BT-549 breast, with MDA-MB-231 breast and in the experiment on UACC-257 melanoma was greater than 100 µM throughout. This compound displayed a TGI with MDA-MB-435 greater than 100 µM.
Regarding `N#CC(Nc1ccccc1)c1ccc(C(C#N)Nc2ccccc2)cc1` (configuration not stated), the TGI in the experiment on HS 578T breast was greater than 100 µM; with SK-OV-3 ovarian, greater than 100 µM; in the experiment with KM12 colon it was greater than 100 µM; in the experiment with LOX IMVI melanoma it was greater than 100 µM; with HT29 colon, 80.9 µM; in the experiment on UACC-62 melanoma it was greater than 100 µM. The TGI with SN12C renal, with SK-MEL-5 melanoma, in the experiment on U251 CNS, with DU-145 prostate, in the experiment with BT-549 breast and with MDA-MB-231 breast was greater than 100 µM each time. The TGI in the experiment on UACC-257 melanoma and with MDA-MB-435 was greater than 100 µM in each case.
